Tests used:
[1] = test system: Aβtotal; assay: In vivo efficacy: Aβtotal in brain (ELISA); parameters: species or system mouse; conditions: brain soluble fraction; typical protocol: single oral dose, overnight fasted animals, after four hours
From the text: (§1) To determine whether acute administration of an Aβ42 lowering agent would reduce Aβ42 levels in vivo, non-transgenic rodents, e.g. mice or rats were used. Alternatively, two to three month old Tg2576 mice expressing APP695 containing the “Swedish” variant can be used or a transgenic mouse model developed by Dr. Fred Van Leuven (K.U.Leuven, Belgium) and co-workers, with neuron-specific expression of a clinical mutant of the human amyloid precursor protein [V717I] (Moechars et al., 1999 J. Biol. Chem. 274, 6483). Young transgenic mice have high levels of Aβ in the brain but no detectable Aβ deposition. At approximately 6-8 months of age, the transgenic mice start to display spontaneous, progressive accumulation of β-amyloid (A13) in the brain, eventually resulting in amyloid plaques within the subiculum, hippocampus and cortex. Animals treated with the Aβ42 lowering agent were examined and compared to those untreated or treated with vehicle and brain levels of soluble Aβ42 and total Aβ would be quantitated by standard techniques, for example, using ELISA. Treatment periods varied from hours to days and were adjusted based on the results of the Aβ42 lowering once a time course of onset of effect could be established.
(§2) A typical protocol for measuring Aβ42 lowering in vivo is shown but it is only one of many variations that could be used to optimize the levels of detectable Aβ. For example, Aβ42 lowering compounds were formulated in 20% of Captisol® (a sulfobutyl ether of β-cyclodextrin) in water or 20% hydroxypropyl β cyclodextrin. The Aβ42 lowering agents were administered as a single oral dose or by any acceptable route of administration to overnight fasted animals. After four hours, the animals were sacrificed and Aβ42 levels were analysed.
(§3) Blood was collected by decapitation and exsanguinations in EDTA-treated collection tubes. Blood was centrifuged at 1900 g for 10 minutes (min) at 4° C. and the plasma recovered and flash frozen for later analysis. The brain was removed from the cranium and hindbrain. The cerebellum was removed and the left and right hemisphere were separated. The left hemisphere was stored at −18° C. for quantitative analysis of test compound levels. The right hemisphere was rinsed with phosphate-buffered saline (PBS) buffer and immediately frozen on dry ice and stored at −80° C. until homogenization for biochemical assays.
(§4) Mouse brains were resuspended in 10 volumes of 0.4% DEA (diethylamine)/50 mM NaCl pH 10 (for non-transgenic animals) or 0.1% 3-[(3-cholamidopropyl)-dimethyl-ammonio]-1-propanesulfonate (CHAPS) in tris buffered saline (TBS) (for transgenic animals) containing protease inhibitors (Roche-11873580001 or 04693159001) per gram of tissue, e.g. for 0.158 g brain, add 1.58 ml of 0.4% DEA. All samples were sonicated for 30 sec on ice at 20% power output (pulse mode). Homogenates were centrifuged at 221.300×g for 50 min. The resulting high speed supernatants were then transferred to fresh tubes and were optionally further purified before the next step. A portion of the supernatant was neutralized with 10% 0.5 M Tris-HCl and this was used to quantify Aβtotal.
(§5) The obtained supernatants were purified with Water Oasis HLB reverse phase columns (Waters Corp., Milford, Mass.) to remove non-specific immunoreactive material from the brain lysates prior subsequent Aβ detection. Using a vacuum manifold, all solutions were passed through the columns at a rate of approximately 1 ml/min, so the vacuum pressure was adjusted accordingly throughout the procedure. Columns were preconditioned with 1 ml of 100% MeOH, before equilibration with 1 ml of H2O, Non-neutralized brain lysates were loaded onto the columns. The loaded samples were then washed twice with the first wash performed with 1 ml of 5% MeOH, and the second wash with 1 ml of 30% MeOH. Finally, the Aβ was eluted from the columns and into 100×30 mm glass tubes, with a solution of 90% MeOH with 2% NH4OH. […]

[2] = test system: Aβtotal; assay: Method 1: Aβtotal sandwich ELISA on media of SKNBE2 cells carrying APP 695 wild type; format: cell-based; conditions: Homo sapiens, SKNBE2 cells APP 695 wild type, 18 hours
Method in brief: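 SKNBE2 cells expressing wild-type APP695 treated with compound for 18 h in Ultraculture; secreted Aβtotal measured by 6E10-capture/biotinylated 4G8 sandwich ELISA with fluorogenic peroxidase read-out. IC50 from 4-parameter fit, top/bottom fixed at 100/0, Hill slope 1; toxicity checked by WST-1.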

[3] = test system: Aβ42; assay: In vivo efficacy: Aβ42 lowering in brain (ELISA); parameters: species or system mouse; conditions: brain soluble fraction; typical protocol: single oral dose, overnight fasted animals, after four hours
From the text: as §1, §2, §3, §4, §5

Compound | Aβtotal (% Ctrl) _Mean [1] | IC50 [2] | Aβ42 (% Ctrl) _Mean [3] | melting point
COc1cccc(-n2cc3cccc(Nc4ccc(-n5cnc(C)c5)c(OC)c4)c3n2)c1 [Compound 1, N-[3-methoxy-4-(4-methyl-1H-imidazol-1-yl)phenyl]-2-(3-methoxyphenyl)-2H-indazol-7-amine] | 108 % Ctrl | > 3 µM | 94 % Ctrl | 
COc1cccc(-n2nc3c(Nc4ccc(-n5cnc(C)c5)c(OC)c4)cccc3c2C)c1 [Compound 2, N-[3-methoxy-4-(4-methyl-1H-imidazol-1-yl)phenyl]-2-(3-methoxyphenyl)-3-methyl-2H-indazol-7-amine] | 90 % Ctrl | > 1 µM | 59 % Ctrl | 184.4 °C
COc1cc(Nc2cccc3cn(CC(F)(F)F)nc23)ccc1-c1cnc(C)o1 [Compound 6, N-[3-methoxy-4-(2-methyl-5-oxazolyl)phenyl]-2-(2,2,2-trifluoroethyl)-2H-indazol-7-amine] | 95 % Ctrl | > 3 µM | 79 % Ctrl | 
COc1cc(Nc2cccc3cn(Cc4ccc(F)cc4)nc23)ccc1-n1cnc(C)c1 [Compound 15, 2-[(4-fluorophenyl)methyl]-N-[3-methoxy-4-(4-methyl-1H-imidazol-1-yl)phenyl]-2H-indazol-7-amine] | 94 % Ctrl | > 3 µM | 69 % Ctrl | 
COc1cccc(-n2nc3c(Nc4ccc(-c5cnc(C)o5)cc4)cccc3c2C)c1 [Compound 29, 2-(3-methoxyphenyl)-3-methyl-N-[4-(2-methyl-5-oxazolyl)phenyl]-2H-indazol-7-amine] | 98 % Ctrl | > 1 µM | 96 % Ctrl | 152.2 °C
COc1cc(Nc2cccc3cn(CC4CC4)nc23)ccc1-c1cnc(C)o1.Cl [Compound 38, 2-(cyclopropylmethyl)-N-[3-methoxy-4-(2-methyl-5-oxazolyl)phenyl]-2H-indazol-7-amine HCl] | 106 % Ctrl | > 3 µM | 123 % Ctrl | 
COc1cccc(-n2nc3c(Nc4ccc(-c5cnc(C)o5)c(OC)c4)nccc3c2C)c1 [Compound 42, N-[3-methoxy-4-(2-methyl-5-oxazolyl)phenyl]-2-(3-methoxyphenyl)-3-methyl-2H-pyrazolo[3,4-c]pyridin-7-amine] | 100 % Ctrl | > 3 µM | 104 % Ctrl | 194.4 °C

Source: US20120095036A1, “NOVEL SUBSTITUTED INDAZOLE AND AZA-INDAZOLE DERIVATIVES AS GAMMA SECRETASE MODULATORS” (priority 2009, published 2012)
